The text below walks through data of patent publication US9339033B2, “1-aryl-5-alkyl pyrazole derivative compounds, processes of making and methods of using thereof” (MERIAL, INC., priority 2007, dated 2016).

Series [1] has as its system green peach aphid (Myzus persicae). Briefly: Method J: Myzus persicae test (spray application). The series is classed as in vivo. The conditions noted are these: concentration of 500 g/ha, spray on infected Chinese cabbage leaf-disks. The text has this:
Method J: Myzus persicae Test (Spray Application)
100% means that all aphids have been killed; 0% means that none of the aphids have been killed.

For series [2], the system named is Rhipicephalus sanguineus (Brown Dog Tick). The series is described as follows: Method A: contact activity against ticks. The series is classed as in vivo. The conditions noted are these: 48 h; for LC50: read-out: LD50; for pest or weed control at 25 µg/mL: read-out: control of Rhipicephalus sanguineus. The text has this: • Method of Use Examples Method A: Screening Method to Test Contact Activity of Compounds Against Ticks
A solution of the test compound was used to coat the inner wall of glass vials and to treat two filter papers. Once dried, one filter paper was placed in the cap of the vial and the other in the bottom of the vial. Each treated vial was infested with 10 adult Rhipicephalus sanguineus (Brown Dog Tick). Contact of the ticks with residues was induced by holding the vials in a controlled environment (24° C., 90-95% relative humidity) and assessment was performed at 24, 48 hours after application in comparison with untreated controls.

Series [3] deals with western flower thrips (Frankliniella occidentalis). The series is described as follows: Method L: Frankliniella occidentalis test (spray application). It counts as in vivo. The conditions noted are these: concentration of 500 g/ha, spray on French bean leaf-disks. The text has this:
Method L: Frankliniella occidentalis Test (Spray Application)
French bean (Phaseolus vulgaris) leaf-disks are sprayed with a test solution containing the desired concentration of the active ingredient. Once dry, the leaf disks are infested with western flower thrips (Frankliniella occidentalis).
100% means that all the thrips have been killed; 0% means that none of the thrips have been killed.

In series [4] the test system is fall armyworm larvae (Spodoptera frugiperda). The series is described as follows: Method I: Spodoptera frugiperda test (spray application). It counts as in vivo. The conditions noted are these: concentration of 500 g/ha, spray on maize leaf sections. The text has this:
Method I: Spodoptera frugiperda Test (Spray Application)
Maize (Zea mais) leaf sections are sprayed with a preparation of the active ingredient of the desired concentration. Once dry, the leaf sections are infested with fall armyworm larvae (Spodoptera frugiperda).

Series [5] has as its system Ctenocephalides felis. The series is described as follows: Method B: contact activity against fleas. The conditions noted are these: 72 hours assessment. It counts as in vivo. As to the method: Method B: Screening Method to Test Contact Activity of Compounds Against Fleas
A solution of the test compound was dispensed, using a pipette, onto filter paper placed into a glass vial. The filter paper was allowed to dry before infesting each vial with 10 adult Ctenocephalides felis. The treated Ctenocephalides felis were held in a controlled environment (24° C., 90-95% relative humidity) and assessment was performed at 24, 48 and 72 hours after application in comparison with untreated controls.

The test system of series [6] is am. serpentine leaf miner (Liriomyza trifolii). Briefly: Method M: Liriomyza trifolii test (spray application). It counts as in vivo. The note with it: concentration of 500 g/ha, spray on infested French bean leaf-disks. The source says:
Method M: Liriomyza trifolii Test (Spray Application)
French bean (Phaseolus vulgaris) leaf-disks infested with larvaes of the am. serpentine leaf miner (Liriomyza trifolii) are sprayed with a test solution containing the desired concentration of the active ingredient.
100% means that all the leaf miners have been killed; 0% means that none of the leaf miners have been killed.

In series [7] the test system is two spotted spidermite (Tetranychus urticae). The series is described as follows: Method K: Tetranychus urticae test; OP-resistant (spray application). The conditions noted are these: read-out: activity (mortality in %), Tetranychus urticae. As to the method:
Method K: Tetranychus urticae Test; OP-Resistant (Spray Application)
French beans (Phaseolus vulgaris) which are heavily infested with all stages of the two spotted spidermite (Tetranychus urticae), are sprayed with a preparation of the active ingredient at the desired concentration.
After the specified period of time, mortality in % is determined. 100% means that all spider mites have been killed and 0% means that none of the spider mites have been killed.

The conditions of series [8]: cited from earlier work.

As a reminder, the mortality is the share of the test organisms that died. `N#Cc1nn(-c2c(F)cc(C(F)(F)F)cc2Cl)c(CF)c1SC(F)(F)F` [Compound 8, 1-(2-Chloro-6-fluoro-4-trifluoromethylphenyl)-3-cyano-5-fluoromethyl-4-trifluoromethylthiopyrazole]: the mortality at 500 g/ha in series [1] and in series [3] was not below 80% each time. The LC50 in series [2] is less than 6 µg/mL. Moreover, the pest or weed control at 25 µg/mL in series [2] is not below 80%.

Take `N#Cc1nn(-c2c(Cl)cc(OC(F)(F)F)cc2Cl)c(CF)c1[S+]([O-])C(F)(F)F` (stereo not shown) [Compound 18, 3-Cyano-1-(2,6-dichloro-4-trifluoromethoxyphenyl)-5-fluoromethyl-4-trifluoromethylsulfinylpyrazole]: the mortality at 500 g/ha in series [1] is not below 80%. Further, in series [2], the LC50 was less than 6 µg/mL and the pest or weed control at 25 µg/mL was not below 80%.

Regarding `Cc1cc(C(F)(F)F)cc(Cl)c1-n1nc(C#N)c(SC(F)(F)F)c1C` [Compound 43, 1-(2-chloro-6-methyl-4-trifluoromethylphenyl)-3-cyano-5-methyl-4-trifluoromethylthiopyrazole], the mortality at 500 g/ha in series [1] is not below 80%. Further, in series [2], the LC50 is less than 6 µg/mL and the pest or weed control at 25 µg/mL was not below 80%.

The compound `Cc1c(SC(F)(F)F)c(C#N)nn1-c1c(Cl)cc(OC(F)(F)F)cc1Cl` [Compound 17, 3-Cyano-1-(2,6-dichloro-4-trifluoromethoxyphenyl)-5-methyl-4-trifluoromethylthiopyrazole] gave a mortality at 500 g/ha in series [1] not below 80%. For the same compound, in series [2], the LC50 was less than 6 µg/mL and the pest or weed control at 25 µg/mL was not below 80%.

For the compound `Cc1c([S+]([O-])C(F)(F)F)c(C#N)nn1-c1c(Cl)cc(C(F)(F)F)cc1Cl` (stereo not shown) [Compound 5, 3-cyano-1-(2,6-dichloro-4-trifluoromethylphenyl)-5-methyl-4-trifluoromethylsulfinylpyrazole], the mortality at 500 g/ha in series [4], in series [1] and in series [3] was not below 80% each time. In addition, the LC50 in series [2] is less than 6 µg/mL. Moreover, in series [2], the pest or weed control at 25 µg/mL is not below 80%.

With `N#Cc1nn(-c2c(Cl)cc(C(F)(F)F)cc2Cl)c(N)c1[S+]([O-])C(F)(F)F` (stereo not shown) [fipronil], the LD50 entry in series [5] is reported as “around 20 ppm”.

For the compound `Cc1c(S(=O)(=O)C(F)(F)F)c(C#N)nn1-c1c(Cl)cc(C(F)(F)F)cc1Cl` [Compound 4, 3-cyano-1-(2,6-dichloro-4-trifluoromethylphenyl)-5-methyl-4-trifluoromethylsulfonylpyrazole], the mortality at 500 g/ha in series [1] and in series [3] was not below 80% in each case. Also, the LC50 in series [2] was less than 6 µg/mL. In addition, the pest or weed control at 25 µg/mL in series [2] is not below 80%.

Regarding `N#Cc1nn(-c2c(Cl)cc(C(F)(F)F)cc2Cl)c(CF)c1SC(F)(F)F` [Compound 3, 3-cyano-1-(2,6-dichloro-4-trifluoromethylphenyl)-5-fluoromethyl-4-trifluoromethylthiopyrazole], in series [1], the mortality at 500 g/ha is not below 80%. Besides, in series [2], the LC50 was less than 6 µg/mL and the pest or weed control at 25 µg/mL was not below 80%. In series [3], this compound came in with a mortality at 500 g/ha not below 80%.

On to `Cc1c([S+]([O-])C(F)(F)F)c(C#N)nn1-c1c(F)cc(C(F)(F)F)cc1F` (stereo not shown) [Compound 12, 3-Cyano-1-(2,6-difluoro-4-trifluoromethylphenyl)-5-methyl-4-trifluoromethylsulfinylpyrazole], for which the mortality at 500 g/ha in series [1] was not below 80%. In series [2], the LC50 is less than 6 µg/mL and the pest or weed control at 25 µg/mL is not below 80%. Also, in series [3], the mortality at 500 g/ha was not below 80%.

For the compound `N#Cc1nn(-c2c(Cl)cc(C(F)(F)F)cc2Cl)c(CF)c1[S+]([O-])C(F)(F)F` (stereo not shown) [Compound 10, 3-Cyano-1-(2,6-dichloro-4-trifluoromethylphenyl)-5-fluoromethyl-4-trifluoromethylsulfinylpyrazole], the mortality at 500 g/ha in series [4], in series [1], in series [6] and in series [3] was not below 80% each time. Also, the LC50 in series [2] was less than 6 µg/mL. The pest or weed control at 25 µg/mL in series [2] was not below 80%.

As for `Cc1c(SC(F)(F)F)c(C#N)nn1-c1c(F)cc(C(F)(F)F)cc1Cl` [Compound 7, 1-(2-Chloro-6-fluoro-4-trifluoromethylphenyl)-3-cyano-5-methyl-4-trifluoromethylthiopyrazole], the mortality at 500 g/ha in series [1] is not below 80%. In addition, in series [2], the LC50 is less than 6 µg/mL and the pest or weed control at 25 µg/mL is not below 80%. The compound further showed a mortality at 500 g/ha in series [3] not below 80%.

In turn, `Cc1c([S+]([O-])C(F)(F)F)c(C#N)nn1-c1ccc(C(F)(F)F)cc1F` (stereo not shown) [Compound 14, 3-Cyano-1-(2-fluoro-4-trifluoromethylphenyl)-5-methyl-4-trifluoromethylsulfinylpyrazole] displayed a mortality at 500 g/ha in series [1] not below 80%. Besides, in series [7], the mortality at 100 g/ha was not below 80%. Further, in series [2], the LC50 is less than 6 µg/mL and the pest or weed control at 25 µg/mL is not below 80%.

Regarding `N#Cc1ccc(CC(=NNC(=O)Nc2ccc(OC(F)(F)F)cc2)c2cccc(C(F)(F)F)c2)cc1` (mixture of isomers) [Metaflumizone], in series [8], the “oral LD50” value is reported as > 5,000 mg/kg.

In turn, `N#Cc1nn(-c2c(Cl)cc(OC(F)(F)F)cc2Cl)c(CF)c1SC(F)(F)F` [Compound 16, 3-Cyano-1-(2,6-dichloro-4-trifluoromethoxyphenyl)-5-fluoromethyl-4-trifluoromethylthiopyrazole] registered a mortality at 500 g/ha in series [1] not below 80%. For the same compound, in series [2], the LC50 is less than 6 µg/mL and the pest or weed control at 25 µg/mL was not below 80%. In series [3], the mortality at 500 g/ha is not below 80%.

Turning to `Cc1c([S+]([O-])C(F)(F)F)c(C#N)nn1-c1c(Cl)cc(OC(F)(F)F)cc1Cl` (stereo not shown) [Compound 19, 3-Cyano-1-(2,6-dichloro-4-trifluoromethoxyphenyl)-5-methyl-4-trifluoromethylsulfinylpyrazole], the mortality at 500 g/ha in series [1] is not below 80%. In series [2], the LC50 is less than 6 µg/mL and the pest or weed control at 25 µg/mL is not below 80%. Further, the mortality at 500 g/ha in series [3] is not below 80%.

In the case of `Cc1c([S+]([O-])C(F)(F)F)c(C#N)nn1-c1c(F)cc(C(F)(F)F)cc1Cl` (stereo not shown) [Compound 9, 1-(2-Chloro-6-fluoro-4-trifluoromethylphenyl)-3-cyano-5-methyl-4-trifluoromethylsulfinylpyrazole], the mortality at 500 g/ha in series [1] and in series [3] was not below 80% throughout. Besides, the LC50 in series [2] is less than 6 µg/mL. For the same compound, in series [2], the pest or weed control at 25 µg/mL is not below 80%.

As for `N#Cc1nn(-c2c(F)cc(C(F)(F)F)cc2Cl)c(CF)c1[S+]([O-])C(F)(F)F` (stereo not shown) [Compound 11, 1-(2-Chloro-6-fluoro-4-trifluoromethylphenyl)-3-cyano-5-fluoromethyl-4-trifluoromethylsulfinylpyrazole], the mortality at 500 g/ha in series [1] was not below 80%. Also, in series [2], the LC50 was less than 6 µg/mL and the pest or weed control at 25 µg/mL is not below 80%.

`Cc1c(SC(F)(F)F)c(C#N)nn1-c1c(F)cc(C(F)(F)F)cc1F` [Compound 6, 3-cyano-1-(2,6-difluoro-4-trifluoromethylphenyl)-5-methyl-4-trifluoromethylthiopyrazole] came in with a mortality at 500 g/ha in series [1] not below 80%. In series [2], the LC50 is less than 6 µg/mL and the pest or weed control at 25 µg/mL is not below 80%. Besides, the mortality at 500 g/ha in series [3] is not below 80%.

Consider `Cc1c(SC(F)(F)F)c(C#N)nn1-c1c(Cl)cc(C(F)(F)F)cc1Cl` [Compound 1, 3-Cyano-1-(2,6-dichloro-4-trifluoromethylphenyl)-5-methyl-4-trifluoromethylthiopyrazole], for which the mortality at 500 g/ha in series [1] was not below 80%. In series [2], the LC50 was less than 6 µg/mL and the pest or weed control at 25 µg/mL is not below 80%. This compound also yielded a mortality at 500 g/ha in series [3] not below 80%.

In series [1], `Cc1cc(C(F)(F)F)cc(Cl)c1-n1nc(C#N)c([S+]([O-])C(F)(F)F)c1C` (stereo not shown) [Compound 44, 1-(2-Chloro-6-methyl-4-trifluoromethylphenyl)-3-cyano-5-methyl-4-trifluoromethylsulfinylpyrazole] displayed a mortality at 500 g/ha not below 80%. In addition, in series [2], the LC50 was less than 6 µg/mL and the pest or weed control at 25 µg/mL was not below 80%. In series [3], this compound yielded a mortality at 500 g/ha not below 80%.
